Measured values reported in EP1464649A2, “Sugar derivatives comprising oxiranes or alpha,beta-unsaturated gamma-lactones, process for their preparation and their utilisation as pesticides” (Instituto Politécnico de Santarém / Escola Superior Agraria, priority 2003, dated 2004).
In brackets after ≈: the same amount, converted by molar mass. Entries after “also recorded” stand apart in the source; their conditions may differ.

Assays:
[1] = test system: brine shrimp A. salina larvae; assay: in vivo; format: in vivo; details: Method F, 24 hour mortalities
Method: (§1) Freshly hatched brine shrimps were prepared by adding aquarium brine shrimp eggs to salt water (15 g sea salt per litre water). The following day hatchlings were separated from eggs and empty egg cases, using their phototropic movement and a Pasteur pipette.
(§2) Into each of a set of small glass vials was pipetted 195 µL of brine containing 5 shrimp larvae, using a micropipette. The solution of the test compound in 5 µL acetone was added, the vial closed and kept at 30±1°C for observation.
(§3) Dead and alive shrimps were counted, at 1 and 24 hours after treatment, using a microscope. Six concentrations and a control were used with 10 shrimps treated.
(§4) A blank test was performed for comparison of the results.
(§5) Dosages used in insect treatments were based upon the amount of compound applied to each insect. For the shrimps the final concentrations of the compounds in the immersion brine were used.
(§6) The 24 hour mortalities were used to calculate the LD50/LC50 using regression analysis of the probability percent mortality (probit) against log dose/concentration.^30 This was calculated using PoloPC software (LeOra Software, Berkeley, CA, 1994).

[2] = test system: glasshouse white fly (T. vaporariorum); assay: Method G: foliar treatment of glasshouse white fly; format: in vivo; details: for efficacy against white fly: statement in words
Method: Seedlings of tomato plants were infested with adult white fly. Selected leaves of the tomato plants were excised and carefully trimmed to 3 leaflets without disturbing the infestation. These were placed in glass tubes containing water and the leaflets were then sprayed on both sides with a small sprayer delivering for each one 200 µL of a solution of the test compound dissolved in 30% acetone in water.
Controls were sprayed with the solvent alone.
Counts of insects on the individual leaflets were made immediately after spraying and then at 14 hours following.
Where single dose treatments were used (in the case of whitefly assays), no statistics are available and the results are expressed as percent effect.
Five compounds were tested, which were applied spraying 600 µL of each compound solution (prepared according to method G) on the leaves of tomato plants infested with a known number of adult whitefly. After 14 hours, the number of dead insects (or eventually of insects that disappeared) was counted. These assays were performed at room temperature, between 20 and 25°C.

[3] = test system: adult fruit fly (D. melanogaster); assay: Method A: topical treatment of adult fruit fly; format: in vivo, Drosophila melanogaster; details: for LD50: Method A, topical, adult fruit flies, 24 hour mortalities; for activity against adult fruit flies: statement in words from LD50 values
Method: A culture of fruit flies (D. melanogaster) was used in the production of adult flies (approx 0.22 mg) of about seven days.
Serial dilutions of the compounds were prepared in acetone, and volumes of approximately 0.2 µL were applied to the ventral surface of each insect, using a calibrated PAX 100 microapplicator and a 1 mL syringe.
The fruit flies, in groups of 5, were anaesthetised using carbon dioxide. Prior to recovery the flies were placed in a containing vial and kept at 30±1°C, for observations of mortality at 1, 2, 3 and 24 hours after treatment.
For this purpose solutions of 6 different concentrations and a control were employed in groups of 12 and 20 insects. Control mortalities were normally zero but occasionally rose to 5-10%.
as §5, §6

fruit fly larvae = assay: Method D: topical treatment of fruit fly larvae; format: in vivo, Drosophila melanogaster; details: for LD50: Method D, topical, fruit fly larvae; for toxicity for fruit fly larvae compared with adult flies: statement in words
Method: Fruit fly larvae were separated from the growing medium and second and third instars were topically treated with 0.2 µL acetone solutions of the compounds using a PAX microapplicator.
Larvae were held in padded forceps for dosing and then placed on moistened filter paper, at 30±1°C, for observation.
as §6

in vivo = format: in vivo; details: in vivo; Method F, brine shrimp larvae, 24 hour mortalities
Method: as §1, §2, §3, §4, §5, §6

adult fruit flies = assay: Method B: second method for topical treatment of adult fruit flies; format: in vivo, Drosophila melanogaster; details: topical 1 µL acetone solution
Method: Different dilutions of the compounds in acetone were prepared and applied to individual fruit flies using a Gilson piston micropipette.
Individual flies were held in padded forceps and 1 µL of acetone solution was applied. The acetone was allowed to evaporate before placing the fly into the vial for observation, kept at 30±1°C, following the standard methodology.
as §6

[4] = test system: house fly adults (M. domestica); assay: Method E: topical treatment of house fly adults; format: in vivo, Musca domestica; details: adult house flies
Method: A culture of an insecticide-susceptible strain, Cooper, was established. Three-day-old adult house flies (body weight about 1.8 mg) were anaesthetised with carbon dioxide. Using the PAX microapplicator, a volume of 1 µL of acetone solution of the test compounds was applied to the dorsal cuticle, holding the fly in padded forceps.
Groups of flies were placed into closed vials, kept at 30 ±1°C, for observation.
as §6

| Compound | LC50 [1] [µg/mL] | LD50 [3] | activity against adult fruit flies [3] | other results |
| --- | --- | --- | --- | --- |
| CC1(C)O[C@H]2O[C@H]([C@H]3C=CC(=O)O3)[C@H](OCc3ccccc3)[C@H]2O1 [Compound 4, 3-O-benzyl-6,7-dideoxy-1,2-O-isopropylidene-α-D-gluco-oct-6-enefuranurono-8,5-lactone] | 358.92 (≈ 1080 µM) | 0.00012 µg/insect | – | % Control of White Fly ([2]; foliar, 14 h, 2.5 ug/mL): 50%; efficacy against white fly [2]: show efficacy as insecticides; also recorded: promising for activity against the white fly |
| CC1(C)O[C@H]2O[C@H]([C@H]3C=CC(=O)O3)[C@@H](OCc3ccccc3)[C@H]2O1 [Compound 3, 3-O-benzyl-6,7-dideoxy-1,2-O-isopropylidene-α-D-alo-oct-6-enefuranurono-8,5-lactone] | 144.71 (≈ 435 µM) | 5.02x10^-6 µg/insect | extremely active | % Control of White Fly ([2]; foliar, 14 h, 1.3 ug/mL): 0% |
| (7R)-/(7S)-3,6,7-Trideoxy-1,2-O-isopropylidene-7-methyl-7-phenylselenyl-α-D-ribo-octofuranurono-8,5-lactone [Compound 7] | 261.04 | 0.0002 µg/insect | – | LD50 (fruit fly larvae): 0.968 µg/insect; % Control of White Fly ([2]; Concentration 4.8 µg/mL, sprayed tomato leaves, 14 hours): 0% |
| Methyl 2,3;5,6-Dianhydro-β-L-gulofuranoside [Compound 9] | 671.50 | 0.00003 µg/insect | extremely active | % Control of White Fly ([2]; Concentration 2.5 µg/mL, sprayed tomato leaves, 14 hours): 85%; efficacy against white fly [2]: show efficacy as insecticides; also recorded: promising for activity against the white fly |
| CC1=C[C@H]([C@H]2O[C@@H]3OC(C)(C)O[C@@H]3[C@H]2OCc2ccccc2)OC1=O [Compound 1, 3-O-benzyl-6,7-dideoxy-1,2-O-isopropylidene-7-methyl-α-D-gluco-oct-6-enefuranurono-8,5-lactone] | 100.62 (≈ 290 µM) | 0.00002 µg/insect | extremely active | – |
| COC1OC(C2CC(C)([Se]c3ccccc3)C(=O)O2)C2OC12 [Compound 6, methyl (7R)-/(7S)-2,3-anhydro-6,7-dideoxy-7-methyl-7-phenylselenyl-β-L-gulo-octofuranurono-8,5-lactone] | 125.48 (≈ 340 µM) | 0.00015 µg/insect | – | % Control of White Fly ([2]; Concentration 1.3 µg/mL, sprayed tomato leaves, 14 hours): 0% |
| O=[N+]([O-])NC1=NCCN1Cc1ccc(Cl)nc1 [Imidacloprid, reference compound] | – | 0.01253 µg/insect | – | LC50 at 24 h (in vivo): 0.0312 µg/mL (≈ 0.122 µM) |
| CC1=C[C@H]([C@H]2O[C@@H]3OC(C)(C)O[C@@H]3[C@@H]2OCc2ccccc2)OC1=O [Compound 2, 3-O-benzyl-6,7-dideoxy-1,2-O-isopropylidene-7-methyl-α-D-alo-oct-6-enefuranurono-8,5-lactone] | 64.30 (≈ 186 µM) | – | extremely active | LD50 (adult fruit flies): 0.00398 µg/insect |
| CC1(C)OC2OC(C3CC(C)([Se]c4ccccc4)C(=O)O3)C(OCc3ccccc3)C2O1 [Compound 8, (7R)-/(7S)-3-O-Benzyl-6,7-dideoxy-1,2-O-isopropylidene-7-methyl-7-phenylselenyl-α-D-gluco-octofuranurono-8,5-lactone] | 220.41 (≈ 438 µM) | 0.00037 µg/insect | – | toxicity for fruit fly larvae compared with adult flies (fruit fly larvae): less toxic for larvae than for adult flies; LD50 [4]: 0.644 µg/insect |
| CC(=O)OC[C@H]1OC(=O)C(Br)=C[C@@H]1OC(C)=O [Compound 5, 4,6-di-O-acetyl-2-bromo-2,3-dideoxy-D-erythro-hex-2-enone-1,5-lactone] | 38.36 (≈ 125 µM) | 0.00016 µg/insect | – | LD50 (fruit fly larvae): 4.75 µg/insect; toxicity for fruit fly larvae compared with adult flies (fruit fly larvae): less toxic for larvae than for adult flies; LD50 [4]: 1.065 µg/insect |
